Laboratory results from ChEMBL document CHEMBL2073891, “Interaction of digoxin with antihypertensive drugs via MDR1” (Life Sci, 2002).
Blank lines part the entries; values can stand above or below the compound they belong to.

What was measured:
Type in all cases: functional, cell-based
Details in all cases: pig, llc-pk1, 50 µM
[1] = molecular target: T1, ATP-dependent translocase ABCB1 (Homo sapiens, UniProt P08183); assay: TP_TRANSPORTER: inhibition of Digoxin transepithelial transport (basal to apical)(Digoxin: 0.1 uM, Atenolol: 50 uM) in MDR1-expressing LLC-PK1 cells
T1 sequence (P08183 whole entry): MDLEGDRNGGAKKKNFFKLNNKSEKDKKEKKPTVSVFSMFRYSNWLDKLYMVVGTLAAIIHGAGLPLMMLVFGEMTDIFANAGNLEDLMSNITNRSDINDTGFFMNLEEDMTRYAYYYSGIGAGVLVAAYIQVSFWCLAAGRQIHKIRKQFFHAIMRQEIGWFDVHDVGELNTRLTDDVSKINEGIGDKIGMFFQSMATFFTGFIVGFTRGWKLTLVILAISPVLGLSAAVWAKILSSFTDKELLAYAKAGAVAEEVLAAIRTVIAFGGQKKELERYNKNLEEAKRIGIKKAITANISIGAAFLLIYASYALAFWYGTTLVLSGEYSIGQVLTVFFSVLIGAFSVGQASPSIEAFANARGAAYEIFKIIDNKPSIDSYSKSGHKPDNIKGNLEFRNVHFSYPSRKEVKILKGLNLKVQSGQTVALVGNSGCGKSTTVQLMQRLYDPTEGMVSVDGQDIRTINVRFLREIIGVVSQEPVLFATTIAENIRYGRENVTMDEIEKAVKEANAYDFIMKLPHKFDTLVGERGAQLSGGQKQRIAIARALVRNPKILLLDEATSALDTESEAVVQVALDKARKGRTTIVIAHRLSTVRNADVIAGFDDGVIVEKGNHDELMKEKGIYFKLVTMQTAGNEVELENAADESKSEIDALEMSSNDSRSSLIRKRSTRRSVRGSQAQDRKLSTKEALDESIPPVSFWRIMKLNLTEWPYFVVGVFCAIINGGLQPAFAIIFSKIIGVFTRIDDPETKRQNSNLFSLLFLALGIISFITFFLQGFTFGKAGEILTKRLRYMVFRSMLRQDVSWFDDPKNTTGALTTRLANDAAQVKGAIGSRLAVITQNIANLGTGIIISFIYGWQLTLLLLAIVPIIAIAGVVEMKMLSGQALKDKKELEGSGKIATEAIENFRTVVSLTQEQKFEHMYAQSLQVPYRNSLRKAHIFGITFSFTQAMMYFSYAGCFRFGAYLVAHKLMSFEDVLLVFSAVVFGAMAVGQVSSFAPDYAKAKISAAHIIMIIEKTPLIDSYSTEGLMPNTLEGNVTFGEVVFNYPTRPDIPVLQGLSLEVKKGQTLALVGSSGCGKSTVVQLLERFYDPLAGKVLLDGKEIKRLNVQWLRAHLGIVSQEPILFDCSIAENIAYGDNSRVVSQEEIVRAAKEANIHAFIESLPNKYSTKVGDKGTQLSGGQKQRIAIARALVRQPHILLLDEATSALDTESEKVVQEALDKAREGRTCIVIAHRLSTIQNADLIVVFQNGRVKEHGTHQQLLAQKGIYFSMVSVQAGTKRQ

[2] = molecular target: T1, ATP-dependent translocase ABCB1; assay: TP_TRANSPORTER: inhibition of Digoxin transepithelial transport (basal to apical)(Digoxin: 0.1 uM, Candesartan cilexetil: 50 uM) in MDR1-expressing LLC-PK1 cells
[3] = molecular target: T1, ATP-dependent translocase ABCB1; assay: TP_TRANSPORTER: inhibition of Digoxin transepithelial transport (basal to apical)(Digoxin: 0.1 uM, Candesartan: 50 uM) in MDR1-expressing LLC-PK1 cells
[4] = molecular target: T1, ATP-dependent translocase ABCB1; assay: TP_TRANSPORTER: inhibition of Digoxin transepithelial transport (basal to apical)(Digoxin: 0.1 uM, Captopril: 50 uM) in MDR1-expressing LLC-PK1 cells
[5] = molecular target: T1, ATP-dependent translocase ABCB1; assay: TP_TRANSPORTER: inhibition of Digoxin transepithelial transport (basal to apical)(Digoxin: 0.1 uM, Carvedilol: 50 uM) in MDR1-expressing LLC-PK1 cells
[6] = molecular target: T1, ATP-dependent translocase ABCB1; assay: TP_TRANSPORTER: inhibition of Digoxin transepithelial transport (basal to apical)(Digoxin: 0.1 uM, Cilazaprilat: 50 uM) in MDR1-expressing LLC-PK1 cells
[7] = molecular target: T1, ATP-dependent translocase ABCB1; assay: TP_TRANSPORTER: inhibition of Digoxin transepithelial transport (basal to apical)(Digoxin: 0.1 uM, Cilazapril: 50 uM) in MDR1-expressing LLC-PK1 cells
[8] = molecular target: T1, ATP-dependent translocase ABCB1; assay: TP_TRANSPORTER: inhibition of Digoxin transepithelial transport (basal to apical)(Digoxin: 0.1 uM, Delapril: 50 uM) in MDR1-expressing LLC-PK1 cells
[9] = molecular target: T1, ATP-dependent translocase ABCB1; assay: TP_TRANSPORTER: inhibition of Digoxin transepithelial transport (basal to apical)(Digoxin: 0.1 uM, Doxazosin: 50 uM) in MDR1-expressing LLC-PK1 cells
[10] = molecular target: T1, ATP-dependent translocase ABCB1; assay: TP_TRANSPORTER: inhibition of Digoxin transepithelial transport (basal to apical)(Digoxin: 0.1 uM, Enalapril: 50 uM) in MDR1-expressing LLC-PK1 cells
[11] = molecular target: T1, ATP-dependent translocase ABCB1; assay: TP_TRANSPORTER: inhibition of Digoxin transepithelial transport (basal to apical) (Digoxin: 0.1 uM, Lisinopril: 50 uM) in MDR1-expressing LLC-PK1 cells
[12] = molecular target: T1, ATP-dependent translocase ABCB1; assay: TP_TRANSPORTER: inhibition of Digoxin transepithelial transport (basal to apical) (Digoxin: 0.1 uM, Losartan: 50 uM) in MDR1-expressing LLC-PK1 cells
[13] = molecular target: T1, ATP-dependent translocase ABCB1; assay: TP_TRANSPORTER: inhibition of Digoxin transepithelial transport (basal to apical)(Digoxin: 0.1 uM, Metprolol: 50 uM) in MDR1-expressing LLC-PK1 cells
[14] = molecular target: T1, ATP-dependent translocase ABCB1; assay: TP_TRANSPORTER: inhibition of Digoxin transepithelial transport (basal to apical) (Digoxin: 0.1 uM, Perindoprilat: 50 uM) in MDR1-expressing LLC-PK1 cells
[15] = molecular target: T1, ATP-dependent translocase ABCB1; assay: TP_TRANSPORTER: inhibition of Digoxin transepithelial transport (basal to apical) (Digoxin: 0.1 uM, Perindopril: 50 uM) in MDR1-expressing LLC-PK1 cells
[16] = molecular target: T1, ATP-dependent translocase ABCB1; assay: TP_TRANSPORTER: inhibition of Digoxin transepithelial transport (basal to apical)(Digoxin: 0.1 uM, Temocaprilat: 50 uM) in MDR1-expressing LLC-PK1 cells
[17] = molecular target: T1, ATP-dependent translocase ABCB1; assay: TP_TRANSPORTER: inhibition of Digoxin transepithelial transport (basal to apical)(Digoxin: 0.1 uM, Temocapril: 50 uM) in MDR1-expressing LLC-PK1 cells

SMILES: CC(C)NCC(O)COc1ccc(CC(N)=O)cc1 (configuration not stated) [ATENOLOL]
Activity [1]: is not an inhibitor [-]

SMILES: CCOc1nc2cccc(C(=O)OC(C)OC(=O)OC3CCCCC3)c2n1Cc1ccc(-c2ccccc2-c2nnn[nH]2)cc1 (configuration not stated) [CANDESARTAN CILEXETIL]
Activity [2]: is not an inhibitor [-]

SMILES: CCOc1nc2cccc(C(=O)O)c2n1Cc1ccc(-c2ccccc2-c2nnn[nH]2)cc1 [CANDESARTAN]
Activity [3]: is not an inhibitor [-]

SMILES: C[C@H](CS)C(=O)N1CCC[C@H]1C(=O)O [CAPTOPRIL]
Activity [4]: is not an inhibitor [-]

SMILES: COc1ccccc1OCCNCC(O)COc1cccc2[nH]c3ccccc3c12 (configuration not stated) [CARVEDILOL]
Activity [5]: inhibitor [+]

SMILES: O=C(O)[C@H](CCc1ccccc1)N[C@H]1CCCN2CCC[C@@H](C(=O)O)N2C1=O [CILAZAPRILAT]
Activity [6]: is not an inhibitor [-]

SMILES: CCOC(=O)[C@H](CCc1ccccc1)N[C@H]1CCCN2CCC[C@@H](C(=O)O)N2C1=O [CILAZAPRIL]
Activity [7]: is not an inhibitor [-]

SMILES: NCCCC[C@H](N[C@@H](CCc1ccccc1)C(=O)O)C(=O)N1CCC[C@H]1C(=O)O [LISINOPRIL ANHYDROUS]
Activity [11]: is not an inhibitor [-]

The next lines start with the values.

Activity [8]: is not an inhibitor [-]
SMILES: CCOC(=O)[C@H](CCc1ccccc1)N[C@@H](C)C(=O)N(CC(=O)O)C1Cc2ccccc2C1 [DELAPRIL]

Activity [9]: inhibitor [+]
SMILES: COc1cc2nc(N3CCN(C(=O)C4COc5ccccc5O4)CC3)nc(N)c2cc1OC (configuration not stated) [DOXAZOSIN]

Activity [10]: is not an inhibitor [-]
SMILES: CCOC(=O)[C@H](CCc1ccccc1)N[C@@H](C)C(=O)N1CCC[C@H]1C(=O)O [ENALAPRIL]

Activity [12]: is not an inhibitor [-]
SMILES: CCCCc1nc(Cl)c(CO)n1Cc1ccc(-c2ccccc2-c2nn[nH]n2)cc1 [LOSARTAN]

Activity [13]: is not an inhibitor [-]
SMILES: COCCc1ccc(OCC(O)CNC(C)C)cc1 (configuration not stated) [METOPROLOL]

Activity [14]: is not an inhibitor [-]
SMILES: CCC[C@H](N[C@@H](C)C(=O)N1[C@H](C(=O)O)C[C@@H]2CCCC[C@@H]21)C(=O)O [PERINDOPRILAT]

Activity [15]: is not an inhibitor [-]
SMILES: CCC[C@H](N[C@@H](C)C(=O)N1[C@H](C(=O)O)C[C@@H]2CCCC[C@@H]21)C(=O)OCC [PERINDOPRIL]

Activity [16]: is not an inhibitor [-]
SMILES: O=C(O)CN1C[C@@H](c2cccs2)SC[C@H](N[C@@H](CCc2ccccc2)C(=O)O)C1=O [TEMOCAPRILAT]

Activity [17]: is not an inhibitor [-]
SMILES: CCOC(=O)[C@H](CCc1ccccc1)N[C@H]1CS[C@H](c2cccs2)CN(CC(=O)O)C1=O [TEMOCAPRIL]
